From PubChem BioAssay AID1963960 (Molecular Pharmacology Branch, DTP, NCI, 2024)

Test system: MDA-MB-468 spheroids with HUVEC/MSC, viability
Assay: Anticancer human tumor MDA-MB-468 cell line growth inhibition [PI3K];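 also: spheroids exposed to agents for seven days before readout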;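 as to viability, T/C: 100% = DMSO vehicle control viability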
Settings: for IC50: curve of first compound; for viability, T/C: stronger effect = lower value
Procedure, shortened: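 Viability of mixed-cell spheroids was determined after exposure to pairwise combinations, one partner being inavolisib, alpelisib, duvelisib or copanlisib. Highest tested concentration matched clinical Cmax where known and 10 microM where not, descending in half-log steps.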

[1] = second compound 0.0316 µM, first compound 0.0316 µM
[2] = second compound 0.0316 µM, first compound 0.1 µM
[3] = second compound 0.0316 µM, first compound 0.316 µM
[4] = second compound 0.0316 µM, first compound 1 µM
[5] = second compound 0.0316 µM, first compound 3.16 µM
[6] = second compound 0.0316 µM, first compound 10 µM
[7] = second compound 0.1 µM, first compound 0.0316 µM
[8] = second compound 0.1 µM, first compound 0.1 µM
[9] = second compound 0.1 µM, first compound 0.316 µM
[10] = second compound 0.1 µM, first compound 1 µM
[11] = second compound 0.1 µM, first compound 3.16 µM
[12] = second compound 0.1 µM, first compound 10 µM
[13] = second compound 0.316 µM, first compound 0.0316 µM
[14] = second compound 0.316 µM, first compound 0.1 µM
[15] = second compound 0.316 µM, first compound 0.316 µM
[16] = second compound 0.316 µM, first compound 1 µM
[17] = second compound 0.316 µM, first compound 3.16 µM
[18] = second compound 0.316 µM, first compound 10 µM
[19] = second compound 1 µM, first compound 0.0316 µM
[20] = second compound 1 µM, first compound 0.1 µM
[21] = second compound 1 µM, first compound 0.316 µM
[22] = second compound 1 µM, first compound 1 µM
[23] = second compound 1 µM, first compound 3.16 µM
[24] = second compound 1 µM, first compound 10 µM
[25] = second compound 3.16 µM, first compound 0.0316 µM
[26] = second compound 3.16 µM, first compound 0.1 µM
[27] = second compound 3.16 µM, first compound 0.316 µM
[28] = second compound 3.16 µM, first compound 1 µM
[29] = second compound 3.16 µM, first compound 3.16 µM
[30] = second compound 3.16 µM, first compound 10 µM
[31] = second compound 10 µM, first compound 0.0316 µM
[32] = second compound 10 µM, first compound 0.1 µM
[33] = second compound 10 µM, first compound 0.316 µM
[34] = second compound 10 µM, first compound 1 µM
[35] = second compound 10 µM, first compound 3.16 µM
[36] = second compound 10 µM, first compound 10 µM

C#Cc1c(F)ccc2cc(O)cc(-c3ncc4c(N5CC6CCC(C5)N6)nc(OCC56CCCN5CC(F)C6)nc4c3F)c12 (stereo unspecified) + CC(Nc1ncnc2nc[nH]c12)c1cc2cccc(Cl)c2c(=O)n1-c1ccccc1
IC50 (second compound 0.0316 µM): > 10 µM | IC50 (second compound 0.1 µM): > 10 µM | IC50 (second compound 0.316 µM): > 10 µM | IC50 (second compound 1 µM): > 10 µM | IC50 (second compound 3.16 µM): 4.95 µM | IC50 (second compound 10 µM): < 0.0316 µM | viability, T/C [1]: 104% | viability, T/C [2]: 94.7% | viability, T/C [3]: 92.3% | viability, T/C [4]: 92.3% | viability, T/C [5]: 90.5% | viability, T/C [6]: 62.8% | viability, T/C [7]: 96.5% | viability, T/C [8]: 91.2% | viability, T/C [9]: 88.6% | viability, T/C [10]: 90.4% | viability, T/C [11]: 81.2% | viability, T/C [12]: 57.1% | viability, T/C [13]: 78.7% | viability, T/C [14]: 67.7% | viability, T/C [15]: 70.8% | viability, T/C [16]: 83.6% | viability, T/C [17]: 75.2% | viability, T/C [18]: 54.5% | viability, T/C [19]: 68% | viability, T/C [20]: 72.8% | viability, T/C [21]: 63.7% | viability, T/C [22]: 70.5% | viability, T/C [23]: 62% | viability, T/C [24]: 52.1% | viability, T/C [25]: 63.4% | viability, T/C [26]: 57.5% | viability, T/C [27]: 55.3% | viability, T/C [28]: 60% | viability, T/C [29]: 54.3% | viability, T/C [30]: 43% | viability, T/C [31]: 39.2% | viability, T/C [32]: 39.8% | viability, T/C [33]: 35.5% | viability, T/C [34]: 40.4% | viability, T/C [35]: 38.6% | viability, T/C [36]: 28.2%

C=CC(=O)N1CCN(c2nc(=O)n(-c3c(C)ccnc3C(C)C)c3nc(-c4c(O)cccc4F)c(F)cc23)C(C)C1 (stereo unspecified) + CC(Nc1ncnc2nc[nH]c12)c1cc2cccc(Cl)c2c(=O)n1-c1ccccc1
IC50 (second compound 0.0316 µM): > 10 µM | IC50 (second compound 0.1 µM): > 10 µM | IC50 (second compound 0.316 µM): > 10 µM | IC50 (second compound 1 µM): > 10 µM | IC50 (second compound 3.16 µM): > 10 µM | IC50 (second compound 10 µM): < 0.0316 µM | viability, T/C [1]: 88.1% | viability, T/C [2]: 93% | viability, T/C [3]: 99.4% | viability, T/C [4]: 99.3% | viability, T/C [5]: 86.1% | viability, T/C [6]: 74.2% | viability, T/C [7]: 89.3% | viability, T/C [8]: 79.8% | viability, T/C [9]: 83.7% | viability, T/C [10]: 94.2% | viability, T/C [11]: 91.1% | viability, T/C [12]: 73.7% | viability, T/C [13]: 70.4% | viability, T/C [14]: 74.4% | viability, T/C [15]: 84.3% | viability, T/C [16]: 94.7% | viability, T/C [17]: 76.9% | viability, T/C [18]: 61.4% | viability, T/C [19]: 70.6% | viability, T/C [20]: 61.4% | viability, T/C [21]: 82.2% | viability, T/C [22]: 84.6% | viability, T/C [23]: 84.4% | viability, T/C [24]: 60.6% | viability, T/C [25]: 54.5% | viability, T/C [26]: 57.1% | viability, T/C [27]: 61.4% | viability, T/C [28]: 68.5% | viability, T/C [29]: 70.6% | viability, T/C [30]: 51% | viability, T/C [31]: 41% | viability, T/C [32]: 46.7% | viability, T/C [33]: 47.1% | viability, T/C [34]: 51.1% | viability, T/C [35]: 50.1% | viability, T/C [36]: 37.4%

CC(Cn1ccc(-c2ccc(C#N)c(Cl)c2)n1)NC(=O)c1cc(C(C)O)[nH]n1 (stereo unspecified) + CC(Nc1ncnc2nc[nH]c12)c1cc2cccc(Cl)c2c(=O)n1-c1ccccc1
IC50 (second compound 0.0316 µM): > 10 µM | IC50 (second compound 0.1 µM): > 10 µM | IC50 (second compound 0.316 µM): > 10 µM | IC50 (second compound 1 µM): > 10 µM | IC50 (second compound 3.16 µM): > 10 µM | IC50 (second compound 10 µM): < 0.0316 µM | viability, T/C [1]: 82% | viability, T/C [2]: 92.4% | viability, T/C [3]: 90.2% | viability, T/C [4]: 90.3% | viability, T/C [5]: 88.8% | viability, T/C [6]: 79.1% | viability, T/C [7]: 86.8% | viability, T/C [8]: 80.7% | viability, T/C [9]: 76.5% | viability, T/C [10]: 88.4% | viability, T/C [11]: 89% | viability, T/C [12]: 71.7% | viability, T/C [13]: 85.7% | viability, T/C [14]: 93.6% | viability, T/C [15]: 72.7% | viability, T/C [16]: 76.1% | viability, T/C [17]: 70.7% | viability, T/C [18]: 66.3% | viability, T/C [19]: 55.9% | viability, T/C [20]: 69.1% | viability, T/C [21]: 60.2% | viability, T/C [22]: 73.9% | viability, T/C [23]: 66.6% | viability, T/C [24]: 57.6% | viability, T/C [25]: 60.6% | viability, T/C [26]: 58.8% | viability, T/C [27]: 60.8% | viability, T/C [28]: 52.4% | viability, T/C [29]: 56.5% | viability, T/C [30]: 47.1% | viability, T/C [31]: 45.8% | viability, T/C [32]: 40.5% | viability, T/C [33]: 40.7% | viability, T/C [34]: 43.1% | viability, T/C [35]: 44.5% | viability, T/C [36]: 38.6%
